For the assay, the system named is mexB (EC) strain. As to the kind of experiment: Efflux ability inhibition effect on drug efflux pump MexB (Test Examples 1 and 3): proliferation (OD595) of mexB (EC) strain with EM or LVFX at 1/4 MIC, EC75. It is filed as cell-based, Escherichia coli. The settings on record: Table 51, Test Example 1, 16 to 20 hours culture, OD595; for EC75, mexB (EC) strain, EM: combined with EM at 1/4 MIC; for EC75, mexB (EC) strain, LVFX: combined with LVFX at 1/4 MIC. As to the method: The efflux ability inhibition effect of the test compound on the drug efflux pump was evaluated using the bacterial proliferative ability in the presence of EM or LVFX as an index.
EM is a macrolide antibacterial agent and is a drug that is discharged outside the bacteria by MexB and MexY LVFX is a quinolone antibacterial agent and is a drug that is discharged outside the bacteria by MexB and MexY In a case where the test compound has an efflux ability inhibitory ability against the drug efflux pump, the proliferation of bacteria is suppressed by the combined use of EM or LVFX and the test compound, as compared with the case where EM or LVFX is used alone.
A mutant strain (hereinafter, referred to as an “mexB (EC) strain”) obtained by transferring the genes of the main multidrug efflux system MexAB-OprM of Pseudomonas aeruginosa described in Nature, 2013, Vol. 500, pp. 102 to 106 as a plasmid into Escherichia coli strains in which the acrB and tolC genes of the multidrug efflux system AcrAB-TolC were deleted as described in Journal of Infection and Chemotherapy 2008, Vol. 14, pp. 23 to 29, and a gene transfer strain (hereinafter, referred to as an “mexY (EC) strain”) of another main multidrug efflux system MexXY-OprM of Pseudomonas aeruginosa were used for the evaluation of test compounds.
In the mexB (EC) strain, an expression level of MexB of the drug efflux pump is accelerated, and in the mexY (EC) strain, an expression level of MexY of the drug efflux pump is accelerated.
For culturing each Escherichia coli strain, a 96-well plate (amount of culture medium per well: 100 μL) was used and Luria-Bertani broth (LB) culture medium was used. The inoculation amount of the bacteria was set to 10^4 to 5 CFU/well.
The mexB (EC) strain and the mexY (EC) strain were cultured for 16 to 20 hours in a culture medium to which EM or LVFX and test compounds at various concentrations (0 to 800 μM) were added, and the proliferation of the bacterial strains was evaluated by optical turbidity at 595 nm (OD595). The concentration of the antibacterial agents (EM and LVFX) in the culture medium were each set to ¼ of the minimum inhibitory concentration (MIC) (hereinafter, referred to as ¼ MIC) of the single antibacterial agent.
The proliferation of bacteria in a case where the antibacterial agent was added at the concentration of ¼ MIC in a case where the test compound was not added was measured, and compared with the proliferation of bacteria in a case where the test compound was contained, and the lowest concentration of the test compound at which the proliferation was inhibited by 75% or more was defined as the drug efflux pump inhibitory ability of the test compound as 75% inhibitory effect concentration (EC75).
The drug efflux pump inhibitory ability of each test compound in a case of being used in combination with the antibacterial agent against the mexB (EC) strain and the mexY (EC) strain was evaluated as follows according to the value of EC75. • S: EC75≤[…] • A: 12.5 μM<EC75≤25 μM • B: 25 μM<EC75≤100 μM • C: […]
In the same manner as in Test Example 1, the efflux ability inhibition effect of the test compound on the drug efflux pump was evaluated using the bacterial proliferation ability in the presence of EM or LVFX as an index.

Where a name gives a salt, the structure may show the parent alone.

For the molecule `O=C(CN1CCN(CCc2ccccc2)CC1)N1CCN(Cc2ccccc2F)CC1` [Example 259, hydrochloride of 1-(4-(2-fluorobenzyl)piperazin-1-yl)-2-(4-phenethylpiperazin-1-yl)ethan-1-one], the “EC75, mexB (EC) strain, EM” value was “A (12.5 μM<EC75≤25 μM)”.
As for `COc1ccccc1CN1CCN(C(=O)CN2CCC(CCc3ccccc3)(NC(C)=O)CC2)CC1` [Example 415, hydrochloride of N-(1-(2-(4-(2-methoxybenzyl)piperazin-1-yl)-2-oxoethyl)-4-phenethylpiperidin-4-yl)acetamide], the “EC75, mexB (EC) strain, LVFX” value is on record as “A (12.5 μM<EC75≤25 μM)”.
Take `O=C(CN1CCN(CCc2ccccc2)CC1)N1CCN(Cc2ccccc2CO)CC1` [Example 262, Hydrochloride of 1-(4-(2-(hydroxymethyl)benzyl)piperazin-1-yl)-2-(4-phenethylpiperazin-1-yl)etban-1-one]: the “EC75, mexB (EC) strain, EM” value is reported as “A (12.5 μM<EC75≤25 μM)” and the “EC75, mexB (EC) strain, LVFX” value was “B (25 μM<EC75≤100 μM)”.
As to `CCOc1cccc(F)c1CN1CCN(C(=O)[C@H](N)C2CCN(CCc3ccccc3N)CC2)CC1` [Example 146, Hydrobromide of (R)-2-amino-2-(1-(2-aminophenethyl)piperidin-4-yl)-1-(4-(2-ethoxy-6-fluorobenzyl)piperazin-1-yl) ethan-1-one], the “EC75, mexB (EC) strain, EM” value was “A (12.5 μM<EC75≤25 μM)”.
Turning to `O=C(CN1CCN(CCc2ccccc2)CC1)N1CCN(Cc2sccc2Cl)CC1` [Example 251, Hydrochloride of 1-(4-((3-chlorothiophen-2-yl)methyl)piperazin-1-yl)-2-(4-phenethylpiperazin-1-yl)ethan-1-one], the “EC75, mexB (EC) strain, EM” value is given as “A (12.5 μM<EC75≤25 μM)” and the “EC75, mexB (EC) strain, LVFX” value is listed as “B (25 μM<EC75≤100 μM)”.
As for `CCOc1cccc(F)c1CN1CCN(C(=O)[C@H](N)C2CCN(CCc3ccccc3C(=O)OC)CC2)CC1` [Example 129, Hydrochloride of Methyl (R)-2-(2-(4-(1-amino-2-(4-(2-ethoxy-6-fluorobenzyl)piperazin-1-yl)-2-oxoethyl)piperidin-1-yl)ethyl)benzoate], the “EC75, mexB (EC) strain, EM” value is “A (12.5 μM<EC75≤25 μM)”.
In the case of `CN(C)c1ccccc1CN1CCN(C(=O)CN2CCN(CCc3ccccc3)CC2)CC1` [Example 224, Hydrochloride of 1-(4-(2-(dimethylamino)benzyl)piperazin-1-yl)-2-(4-phenethylpiperazin-1-yl)ethan-1-one], the “EC75, mexB (EC) strain, LVFX” value was “A (12.5 μM<EC75≤25 μM)”.
As for `COc1ccccc1CN1CCN(C(=O)CC2CCN(CCc3ccccc3)CC2)CC1` [Example 304, hydrochloride of 1-(4-(2-methoxybenzyl)piperazin-1-yl)-2-(1-phenethylpiperidin-4-yl)ethan-1-one], the “EC75, mexB (EC) strain, EM” value is given as “A (12.5 μM<EC75≤25 μM)” and the “EC75, mexB (EC) strain, LVFX” value is “B (25 μM<EC75≤100 μM)”.
With `COCc1ccccc1CN1CCN(C(=O)CN2CCN(CCc3ccccc3)CC2)CC1` [Example 263, Hydrochloride of 1-(4-(2-(methoxymethyl)benzyl)piperazin-1-yl)-2-(4-phenethylpiperazin-1-yl)ethan-1-one], the “EC75, mexB (EC) strain, EM” value is “A (12.5 μM<EC75≤25 μM)” and the “EC75, mexB (EC) strain, LVFX” value is recorded as “A (12.5 μM<EC75≤25 μM)”.
With `CCOc1cccc(/C=C/c2nnn[nH]2)c1CN1CCN(C(=O)[C@H](N)C2CCN(CCc3ccccc3)CC2)CC1` [Example 33, Hydrobromide of (R,E)-1-(4-(2-(2-(1H-tetrazol-5-yl)vinyl)-6-ethoxybenzyl)piperazin-1-yl)-2-amino-2-(1-phenethylpiperidin-4-yl) ethan-1-one], the “EC75, mexB (EC) strain, EM” value is recorded as “B (25 μM<EC75≤100 μM)” and the “EC75, mexB (EC) strain, LVFX” value is listed as “B (25 μM<EC75≤100 μM)”.
Regarding `CCOc1cccc(F)c1CN1CCN(C(=O)[C@H](N)C2CCN(CCc3cccc(O)c3)CC2)CC1` [Example 130, Hydrochloride of (R)-2-amino-1-(4-(2-ethoxy-6-fluorobenzyl)piperazin-1-yl)-2-(1-(3-hydrophenethyl)piperidin-4-yl) ethan-1-one], the “EC75, mexB (EC) strain, EM” value is on record as “B (25 μM<EC75≤100 μM)” and the “EC75, mexB (EC) strain, LVFX” value was “A (12.5 μM<EC75≤25 μM)”.
As for `COc1ccccc1CN1CCN(C(=O)CN2CCN(CCc3ccccn3)CC2)CC1` [Example 288, 1-(4-(2-Methoxybenzyl)piperazin-1-yl)-2-(4-(2-(pyridin-2-yl)ethyl)piperazin-1-yl)ethan-1-one and hydrochloride thereof], the “EC75, mexB (EC) strain, EM” value is listed as “B (25 μM<EC75≤100 μM)” and the “EC75, mexB (EC) strain, LVFX” value is “B (25 μM<EC75≤100 μM)”.
As for `COc1cccc(F)c1C(C)N1CCN(C(=O)CN2CCN(CCc3ccccc3)CC2)CC1.Cl` (stereo not drawn) [Example 269, hydrochloride of 1-(4-(1-(2-fluoro-6-methoxyphenyl)ethyl)piperazin-1-yl)-2-(4-phenethylpiperazin-1-yl)ethan-1-one], the “EC75, mexB (EC) strain, EM” value is recorded as “A (12.5 μM<EC75≤25 μM)” and the “EC75, mexB (EC) strain, LVFX” value is “A (12.5 μM<EC75≤25 μM)”.
As for `CCOc1cccc(F)c1CN1CCN(C(=O)[C@H](N)C2CCN(CCc3nsc4ccccc34)CC2)CC1` [Example 160, Hydrobromide of (R)-2-amino-2-(1-(2-(benzo[d]isothiazol-3-yl)ethyl)piperidin-4-yl)-1-(4-(2-ethoxy-6-fluorobenzyl)piperazin-1-yl)ethan-1-one], the “EC75, mexB (EC) strain, EM” value is “A (12.5 μM<EC75≤25 μM)” and the “EC75, mexB (EC) strain, LVFX” value is “A (12.5 μM<EC75≤25 μM)”.
On to `CCOc1cccc(F)c1CN1CCN(C(=O)[C@H](N)C2CCN(CCc3cn(-c4ccccc4F)c4ccccc34)CC2)CC1` [Example 157, Hydrobromide of (R)-2-amino-1-(4-(2-ethoxy-6-fluorobenzyl)piperazin-1-yl)-2-(1-(2-(1-(2-fluorophenyl)-1H-indol-3-yl)ethyl)piperidin-4-yl)ethan-1-one], for which the “EC75, mexB (EC) strain, EM” value is recorded as “A (12.5 μM<EC75≤25 μM)” and the “EC75, mexB (EC) strain, LVFX” value is “A (12.5 μM<EC75≤25 μM)”.
As to `N#Cc1ccccc1CN1CCN(C(=O)CN2CCN(CCc3ccccc3)CC2)CC1` [Example 234, Hydrochloride of 2-((4-(2-(4-phenethylpiperazin-1-yl)acetyl)piperazin-1-yl)methyl)benzonitrile], the “EC75, mexB (EC) strain, LVFX” value was “B (25 μM<EC75≤100 μM)”.
On the same count and under the same terms, with `N[C@@H](C(=O)N1CCN(Cc2cccc3cc[nH]c23)CC1)C1CCN(CCc2cc(Cl)ccc2-c2ccccc2)CC1` [Example 40, Hydrobromide of (R)-1-(4-((1H-indol-7-yl)methyl)piperazin-1-yl)-2-amino-2-(1-(2-(4-chloro-[1,1′-biphenyl]-2-yl)ethyl)piperidin-4-yl) ethan-1-one] the entry was “B (25 μM<EC75≤100 μM)”.

These data come from patent US20250326744A1, “PIPERAZINE DERIVATIVE OR SALT THEREOF, AND PHARMACEUTICAL COMPOSITION” (priority 2022, published 2025).
